O=S(=O)([O-])NC1CCCCC1.[Na+]
Details	solubility (mole fraction)
in DMF, 283.15 K	3.1e-05
in DMF, 288.14 K	0.000121
in DMF, 293.17 K	0.000214
in DMF, 298.15 K	0.000364
in DMF, 303.13 K	0.00051
in DMF, 308.15 K	0.000724
in DMF, 313.14 K	0.00095
in DMF, 318.13 K	0.00119
in DMF, 323.17 K	0.00141
in DMSO, 293.13 K	0.000997
in DMSO, 298.15 K	0.00226
in DMSO, 303.14 K	0.00433
in DMSO, 308.15 K	0.00792
in DMSO, 313.16 K	0.0117
in DMSO, 318.15 K	0.0154
in DMSO, 323.2 K	0.0183
in DMSO, 328.15 K	0.0198
in DMSO, 333.17 K	0.0203
in acetic acid, 293.15 K	0.0037
in acetic acid, 298.14 K	0.00501
in acetic acid, 303.15 K	0.00649
in acetic acid, 308.17 K	0.00753
in acetic acid, 313.15 K	0.00877
in acetic acid, 318.13 K	0.0103
in acetic acid, 323.15 K	0.0115
in acetic acid, 328.17 K	0.0128
in acetic acid, 333.2 K	0.0134
in formamide, 283.13 K	0.0319
in formamide, 288.15 K	0.0391
in formamide, 293.16 K	0.0438
in formamide, 298.17 K	0.0472
in formamide, 303.15 K	0.0506
in formamide, 308.14 K	0.0526
in formamide, 313.15 K	0.0543
in formamide, 318.12 K	0.0554
in formamide, 323.15 K	0.0567
in formic acid, 283.13 K	0.016
in formic acid, 288.13 K	0.0179
in formic acid, 293.1 K	0.0209
in formic acid, 299.12 K	0.0239
in formic acid, 303.15 K	0.0275
in formic acid, 308.17 K	0.0319
in formic acid, 313.13 K	0.037
in formic acid, 318.2 K	0.0424
in formic acid, 323.15 K	0.0487
in methanol, 283.1 K	0.00271
in methanol, 288.15 K	0.00295
in methanol, 293.24 K	0.00314
in methanol, 298.1 K	0.00331
in methanol, 303.15 K	0.00352
in methanol, 308.2 K	0.00376
in methanol, 313.19 K	0.00405
in methanol, 318.2 K	0.00436
in methanol, 323.15 K	0.00467
in water, 283.13 K	0.0152
in water, 288.17 K	0.0166
in water, 293.15 K	0.018
in water, 298.14 K	0.02
in water, 303.17 K	0.0233
in water, 308.13 K	0.0284
in water, 313.15 K	0.0363
in water, 318.14 K	0.0461
in water, 323.15 K	0.0512
